Results on 19 compounds are retold here after patent US20220306647A1, “NOVEL INDOLE-2-CARBOXAMIDES ACTIVE AGAINST THE HEPATITUS B VIRUS (HBV)” (AICURIS GMBH & CO. KG, priority 2019, published 2022).

Read-outs that look alike come from different tables or passages of the source.

One experiment deals with HBV (HepAD38 cells). Briefly: HBV replication assay: determination of HBV DNA from the supernatants of HepAD38 cells. The experiment is classed as cell-based. The settings on record: Hepatitis B virus, 144 h, HBV DNA in HepAD38 supernatant at day 6, qPCR, read-out: Cell activity. The procedure:
Determination of HBV DNA from the Supernatants of HepAD38 Cells
The anti-HBV activity was analysed in the stable transfected cell line HepAD38, which has been described to secrete high levels of HBV virion particles (Ladner et al., 1997). In brief, HepAD38 cells were cultured at 37° C. at 5% CO2 and 95% humidity in 200 μl maintenance medium, which was Dulbecco's modified Eagle's medium/Nutrient Mixture F-12 (Gibco, Karlsruhe), 10% fetal bovine serum (PAN Biotech Aidenbach) supplemented with 50 μg/ml penicillin/streptomycin (Gibco, Karlsruhe), 2 mM L-glutamine (PAN Biotech, Aidenbach), 400 μg/ml G418 (AppliChem, Darmstadt) and 0.3 μg/ml tetracycline. Cells were subcultured once a week in a 1:5 ratio, but were usually not passaged more than ten times. For the assay 60,000 cells were seeded in maintenance medium without any tetracycline into each well of a 96-well plate and treated with serial half-log dilutions of test compound. To minimize edge effects the outer 36 wells of the plate were not used but were filled with assay medium. On each assay plate six wells for the virus control (untreated HepAD38 cells) and six wells for the cell control (HepAD38 cells treated with 0.3 μg/ml tetracycline) were allocated, respectively. In addition, one plate set with reference inhibitors like BAY 41-4109, entecavir, and lamivudine instead of screening compounds were prepared in each experiment. In general, experiments were performed thrice in triplicates. At day 6 HBV DNA from 100 μl filtrated cell culture supernatant (AcroPrep Advance 96 Filter Plate, […] Supor membran, PALL GmbH, Dreieich) was automatically purified on the MagNa Pure LC instrument using the MagNA Pure 96 DNA and Viral NA Small Volume Kit (Roche Diagnostics, Mannheim) according to the instructions of the manufacturer. EC50 values were calculated from relative copy numbers of HBV DNA In brief, 5 μl of the 100 μl eluate containing HBV DNA were subjected to PCR LC480 Probes Master Kit (Roche) together with 1 μM antisense primer […], 0.5 μM sense primer […], 0.3 μM hybprobes […]-FL and LC640-[…]-PH (TIBMolBiol, Berlin) to a final volume of 12.5 μl. The PCR was performed on the Light Cycler 480 real time system (Roche Diagnostics, Mannheim) using the following protocol: Pre-incubation for 1 min at 95° C., amplification: 40 cycles×(10 sec at 95° C., 50 sec at 60° C., 1 sec at 70° C.), cooling for 10 sec at 40° C. Viral load was quantitated against known standards using HBV plasmid DNA of pCH-9/3091 (Nassal et al., 1990, Cell 63: 1357-1363) and the LightCycler 480 SW 1.5 software (Roche Diagnostics, Mannheim) and EC50 values were calculated using non-linear regression with GraphPad Prism 6 (GraphPad Software Inc., La Jolla, USA).
On the technique in general: Real-time PCR tracks product formation cycle by cycle.

The target in experiment [1] is T1, HBV core protein (C-terminal truncated core protein, 149 amino acids of the N-terminal assembly domain, BODIPY-FL labelled) (UniProt P03146).
T1 construct: fused on or other part: A single cysteine added after residue 149, at position 150; It carries the BODIPY-FL maleimide label
Briefly: Biochemical capsid assembly assay (fluorescence quenching). A digest of the protocol:
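Fluorescence quenching of BODIPY-FL-labelled core dimers (1.0 to 2.0 μM) in 50 mM HEPES pH 7.5; compounds at 8 concentrations, 0.5 log-unit dilutions from top 100, 31.6 or 10 μM, 0.5% DMSO. Assembly started with NaCl to […]; fluorescence (ex 477/em 525 nm) read after 6 min. EC50 by non-linear regression.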

The mark [2] stands for this setting: read-out: Assembly activity, assembly started with NaCl, fluorescence read after 6 min.
The mark [3] stands for this setting: assembly started with NaCl, fluorescence read after 6 min, read-out: Assembly activity.

T1 sequence (P03146 whole entry, the tested form may be a part): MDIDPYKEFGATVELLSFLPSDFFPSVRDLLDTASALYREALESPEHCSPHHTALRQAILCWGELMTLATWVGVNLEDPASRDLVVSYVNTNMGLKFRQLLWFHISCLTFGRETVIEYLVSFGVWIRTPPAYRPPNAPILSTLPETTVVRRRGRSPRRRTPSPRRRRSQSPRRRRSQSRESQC

For `CC1Cn2cnc(C(=O)N(C)C3(c4cccc(C(=O)O)c4)CC3)c2CN1C(=O)c1cc2ccccc2[nH]1` (centres unmarked) [Example 41, 3-{1-[N-methyl-7-(1H-indole-2-carbonyl)-6-methyl-5H,6H,7H,8H-imidazo[1,5-a]pyrazine-1-amido]cyclopropyl}benzoic acid], in the experiment with HBV (HepAD38 cells), the EC50 fell in the range of 1 to 10 µM. In addition, the IC50 in experiment [1] (setting [2]) was less than 5 µM.
Consider `CN(C(=O)c1cnn2c1CN(C(=O)c1cc3c(F)c(F)ccc3[nH]1)CC2)C1(c2cccc(C(=O)O)c2)CC1` [Example 42, 3-{1-[N-methyl-5-(4,5-difluoro-1H-indole-2-carbonyl)-4H,5H,6H,7H-pyrazolo[1,5-a]pyrazine-3-amido]cyclopropyl}benzoic acid], for which, in the experiment with HBV (HepAD38 cells), the EC50 was 1 to 10 µM. In addition, the IC50 in experiment [1] (setting [3]) was less than 5 µM.
For `O=C1NC2(CC2)Cn2nc3c(c21)CN(C(=O)c1cc2ccccc2[nH]1)CC3` [Example 43, 12′-(1H-indole-2-carbonyl)-4′,7′,8′,12′-tetraazaspiro[cyclopropane-1,5′-tricyclo[7.4.0.0^2, D]tridecane]-1′,8′-dien-3′-one], the EC50 with HBV (HepAD38 cells) lay in the range of 1 to 10 µM. Further, the IC50 in experiment [1] (setting [2]) was less than 5 µM.
Turning to `CN(C(=O)c1cnn2c1CN(C(=O)c1cc3c(Cl)cccc3[nH]1)CC2)C1(c2ncc(C(=O)O)cn2)CC1` [Example 45, 2-{1-[N-methyl-5-(4-chloro-1H-indole-2-carbonyl)-4H,5H,6H,7H-pyrazolo[1,5-a]pyrazine-3-amido]cyclopropyl}pyrimidine-5-carboxylic acid], in the experiment on HBV (HepAD38 cells), the EC50 fell in the range of 1 to 10 µM. For the same compound, the IC50 in experiment [1] (setting [3]) is less than 5 µM.
For the compound `C[C@@H](NC(=O)c1noc2c1CN(C(=O)c1cc3ccccc3[nH]1)CC2)C(F)(F)F` [Example 46, 5-(1H-indole-2-carbonyl)-N-[(2R)-1,1,1-trifluoropropan-2-yl]-4H,5H,6H,7H-[1,2]oxazolo[4,5-c]pyridine-3-carboxamide], the EC50 in the experiment on HBV (HepAD38 cells) is less than 1 µM. The IC50 in experiment [1] (setting [2]) is less than 5 µM.
For `CN(C(=O)c1cnn2c1CN(C(=O)c1cc3ccccc3[nH]1)CC2)C1(COc2ccc(C(=O)O)cc2)CC1` [Example 47, 4-({1-[N-methyl-5-(1H-indole-2-carbonyl)-4H,5H,6H,7H-pyrazolo[1,5-a]pyrazine-3-amido]cyclopropyl}methoxy)benzoic acid], the EC50 with HBV (HepAD38 cells) was less than 1 µM. Further, the IC50 in experiment [1] (setting [3]) was less than 5 µM.
`CN(C(=O)c1[nH]nc2c1CN(C(=O)c1cc3c(Cl)cccc3[nH]1)CC2)C1(c2ccc(C(=O)O)cc2)CC1` [Example 49, 4-{1-[N-methyl-5-(4-chloro-1H-indole-2-carbonyl)-2H,4H,5H,6H,7H-pyrazolo[4,3-c]pyridine-3-amido]cyclopropyl}benzoic acid]: the EC50 in the experiment with HBV (HepAD38 cells) is 1 to 10 µM. In experiment [1] (setting [3]), the IC50 was less than 5 µM.
Consider `CN(C(=O)c1cnn2c1CN(C(=O)c1cc3cc(F)c(Cl)cc3[nH]1)CC2)C1(c2ccc(C(=O)O)cc2)CC1` [Example 50, 4-{1-[N-methyl-5-(6-chloro-5-fluoro-1H-indole-2-carbonyl)-4H,5H,6H,7H-pyrazolo[1,5-a]pyrazine-3-amido]cyclopropyl}benzoic acid], for which the EC50 in the experiment with HBV (HepAD38 cells) is less than 1 µM. Also, the IC50 in experiment [1] (setting [3]) is less than 5 µM.
Taken in the same sequence, the figures for `CN(C(=O)c1cnn2c1CN(C(=O)c1cc3c(Cl)cccc3[nH]1)CC2)C1(c2ccc(C(=O)O)cc2)CC1` [Example 51, 4-{1-[N-methyl-5-(4-chloro-1H-indole-2-carbonyl)-4H,5H,6H,7H-pyrazolo[1,5-a]pyrazine-3-amido]cyclopropyl}benzoic acid] were less than 1 µM and less than 5 µM.
Take `CN(C(=O)c1cnn2c1CN(C(=O)c1cc3c(F)c(F)ccc3[nH]1)CC2)C1(c2ccc(C(=O)O)cc2)CC1` [Example 52, 4-{1-[N-methyl-5-(4,5-difluoro-1H-indole-2-carbonyl)-4H,5H,6H,7H-pyrazolo[1,5-a]pyrazine-3-amido]cyclopropyl}benzoic acid]: the EC50 in the experiment on HBV (HepAD38 cells) is less than 1 µM. Further, the IC50 in experiment [1] (setting [3]) is less than 5 µM.
In the same order, the values of `Cc1c(F)ccc2[nH]c(C(=O)N3CCn4ncc(C(=O)N(C)C5(c6ccc(C(=O)O)cc6)CC5)c4C3)cc12` [Example 53, 4-{1-[N-methyl-5-(5-fluoro-4-methyl-1H-indole-2-carbonyl)-4H,5H,6H,7H-pyrazolo[1,5-a]pyrazine-3-amido]cyclopropyl}benzoic acid] are less than 1 µM and less than 5 µM.
Take `Cc1cc(F)cc2[nH]c(C(=O)N3CCn4ncc(C(=O)N(C)C5(c6ccc(C(=O)O)cc6)CC5)c4C3)cc12` [Example 54, 4-{1-[N-methyl-5-(6-fluoro-4-methyl-1H-indole-2-carbonyl)-4H,5H,6H,7H-pyrazolo[1,5-a]pyrazine-3-amido]cyclopropyl}benzoic acid]: the EC50 in the experiment on HBV (HepAD38 cells) is less than 1 µM. Besides, the IC50 in experiment [1] (setting [3]) was less than 5 µM.
For the compound `CN(C(=O)c1[nH]nc2c1CN(C(=O)c1cc3cc(F)c(Cl)cc3[nH]1)CC2)C1(c2ccc(C(=O)O)cc2)CC1` [Example 55, 4-{1-[N-methyl-5-(6-chloro-5-fluoro-1H-indole-2-carbonyl)-2H,4H,5H,6H,7H-pyrazolo[4,3-c]pyridine-3-amido]cyclopropyl}benzoic acid], the EC50 in the experiment with HBV (HepAD38 cells) was 1 to 10 µM. Further, the IC50 in experiment [1] (setting [2]) is less than 5 µM.
For the compound `CN(C(=O)c1cnn2c1CN(C(=O)c1cc3cc(F)c(Cl)cc3[nH]1)CC2)C1(c2ncc(C(=O)O)cn2)CC1` [Example 57, 2-{1-[N-methyl-5-(6-chloro-5-fluoro-1H-indole-2-carbonyl)-4H,5H,6H,7H-pyrazolo[1,5-a]pyrazine-3-amido]cyclopropyl}pyrimidine-5-carboxylic acid], the EC50 in the experiment on HBV (HepAD38 cells) lay in the range of 1 to 10 µM. Moreover, the IC50 in experiment [1] (setting [3]) was less than 5 µM.
On to `Cc1cc(F)cc2[nH]c(C(=O)N3CCn4ncc(C(=O)N(C)C5(c6ncc(C(=O)O)cn6)CC5)c4C3)cc12` [Example 60, 2-{1-[N-methyl-5-(6-fluoro-4-methyl-1H-indole-2-carbonyl)-4H,5H,6H,7H-pyrazolo[1,5-a]pyrazine-3-amido]cyclopropyl}pyrimidine-5-carboxylic acid], for which, in the experiment on HBV (HepAD38 cells), the EC50 was in the range of 1 to 10 µM. Further, in experiment [1] (setting [3]), the IC50 was less than 5 µM.
On to `CN(C(=O)c1cnn2c1CN(C(=O)c1cc3ccccc3[nH]1)CC2)C1(COc2ccccc2C(=O)O)CC1` [Example 61, 2-({1-[N-methyl-5-(1H-indole-2-carbonyl)-4H,5H,6H,7H-pyrazolo[1,5-a]pyrazine-3-amido]cyclopropyl}methoxy)benzoic acid], for which, in the experiment on HBV (HepAD38 cells), the EC50 was 1 to 10 µM. Further, the IC50 in experiment [1] (setting [3]) was less than 5 µM.
For the compound `CN(C(=O)c1cnn2c1CN(C(=O)c1cc3ccccc3[nH]1)CC2)C1(COc2cccc(C(=O)O)c2)CC1` [Example 62, 3-({1-[N-methyl-5-(1H-indole-2-carbonyl)-4H,5H,6H,7H-pyrazolo[1,5-a]pyrazine-3-amido]cyclopropyl}methoxy)benzoic acid], the EC50 in the experiment with HBV (HepAD38 cells) was less than 100 µM. For the same compound, the IC50 in experiment [1] (setting [3]) was less than 5 µM.
In the case of `CN1C(=O)c2c3c(nn2CCC12CC2)CCN(C(=O)c1cc2ccccc2[nH]1)C3` [Example 63, 4′-(1H-indole-2-carbonyl)-13′-methyl-4′, 8′,9′,13′-tetraazaspiro[cyclopropane-1,12′-tricyclo[7.5.0.0^2,]tetradecane]-1′,7′-dien-14′-one], the EC50 in the experiment with HBV (HepAD38 cells) is less than 1 µM. In experiment [1] (setting [3]), the IC50 is less than 5 µM.
With `CN1C(=O)c2c3c(nn2CCC12CC2)CCN(C(=O)c1cc2cc(F)c(Cl)cc2[nH]1)C3` [Example 64, 4′-(6-chloro-5-fluoro-1H-indole-2-carbonyl)-13′-methyl-4′,8′,9′,13′-tetraazaspiro[cyclopropane-1,12′-tricyclo[7.5.0.0^2, Q]tetradecane]-1′,7′-dien-14′-one], the EC50 in the experiment on HBV (HepAD38 cells) was less than 1 µM. The IC50 in experiment [1] (setting [3]) is less than 5 µM.
